Measured values from patent publication US20180305391A1, “COFACTOR ANALOGS AS […] INHIBITORS FOR TREATING CANCER” (MEMORIAL SLOAN-KETTERING CANCER CENTER, priority 2015, published 2018).
Read-outs that look alike come from different tables or passages of the source.

Assays:
Type in all cases: biochemical
G9a = target: T1, G9a (Homo sapiens, UniProt Q96KQ7); experiment: PMT filter-paper methylation assay, G9a; details: G9a (913-1913) 20 nM final, H3 (1-21 aa), 1 h
T1 construct: G9a (913-1913)
T1 sequence (Q96KQ7 913-1193 limits assumed): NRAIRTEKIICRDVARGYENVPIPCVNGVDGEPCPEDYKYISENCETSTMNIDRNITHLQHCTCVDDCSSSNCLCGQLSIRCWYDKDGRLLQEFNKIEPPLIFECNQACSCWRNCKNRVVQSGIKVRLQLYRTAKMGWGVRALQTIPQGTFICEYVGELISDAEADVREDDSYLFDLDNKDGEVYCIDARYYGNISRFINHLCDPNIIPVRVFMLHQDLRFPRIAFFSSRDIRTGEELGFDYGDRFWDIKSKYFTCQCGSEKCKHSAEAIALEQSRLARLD

GLP1 = target: T2, GLP1 (Homo sapiens, UniProt Q9H9B1); experiment: PMT filter-paper methylation assay, GLP1; details: GLP1 (951-1235) 10 nM final, H3 (1-21 aa), 1 h
T2 construct: GLP1 (951-1235)
T2 sequence (Q9H9B1 982-1266): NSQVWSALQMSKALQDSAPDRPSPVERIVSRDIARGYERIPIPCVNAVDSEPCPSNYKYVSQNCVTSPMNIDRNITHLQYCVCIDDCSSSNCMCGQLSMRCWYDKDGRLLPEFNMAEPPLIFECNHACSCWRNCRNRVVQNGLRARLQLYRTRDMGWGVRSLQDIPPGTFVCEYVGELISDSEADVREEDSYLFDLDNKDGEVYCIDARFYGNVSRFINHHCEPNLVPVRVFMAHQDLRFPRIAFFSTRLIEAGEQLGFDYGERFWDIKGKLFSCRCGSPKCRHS
Procedure: (§1) Methylation Reaction. The 20 μL methylation reaction was carried out at ambient temperature using two mixtures: A. 10 μl of enzyme mixture in the assay buffer containing 50 mM Hepes (pH=8.0), 0.005% Tween-20, 5 μg/ml BSA and 1 mM TCEP; B. 10 μl of a mixture of 1.5 μM, 0.15 μCi [^3H-Me]-SAM cofactor and 3 μM of the corresponding peptide substrate in the same assay buffer. After A and B were mixed for a designated time period, the reaction mixture was examined with our filter-paper assay.
(§2) Filter-paper Assay. This assay relies on Whatman P-81 filter paper, which binds peptides but not SAM. Protein Methyl Transferases (PMTs) transfer ^3H-Me of [^3H-Me]-SAM to peptide substrates and the resultant ^3H-methylated, filter-paper-bound peptide is quantified with a scintillation counter. […] The radioactivity was quantified by a Beckman LS6000IC liquid scintillation counter.
(§3) Dose-response Curves and IC50. […] After incubating the reaction mixture for the respective reaction time, the conversion was quantified with the filter paper assay as described above. The inhibition was expressed as the percentage between the high control (no inhibition) and the low control (no enzyme) as follows: Percentage Inhibition=[(high control−reading)/(high control−low control)]×100%. […]

SET7/9 = target: T3, SET7/9 (Homo sapiens, UniProt Q8WTS6); experiment: PMT filter-paper methylation assay, SET7/9; details: SET7/9 full-length 150 nM final, H3 (1-21 aa), 3 h
T3 construct: SET7/9 Full-length
T3 sequence (Q8WTS6 1-366): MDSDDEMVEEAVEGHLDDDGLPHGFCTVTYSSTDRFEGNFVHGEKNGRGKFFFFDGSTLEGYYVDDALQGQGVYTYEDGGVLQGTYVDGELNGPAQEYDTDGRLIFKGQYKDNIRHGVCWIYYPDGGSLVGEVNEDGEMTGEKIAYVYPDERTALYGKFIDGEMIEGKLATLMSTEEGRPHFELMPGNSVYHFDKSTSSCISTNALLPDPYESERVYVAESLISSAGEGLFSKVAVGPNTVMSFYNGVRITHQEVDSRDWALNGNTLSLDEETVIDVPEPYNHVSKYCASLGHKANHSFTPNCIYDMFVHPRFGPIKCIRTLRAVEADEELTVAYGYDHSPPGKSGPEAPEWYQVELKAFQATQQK
Procedure: as §1, §2, §3

SET8 = target: T4, SET8 (Homo sapiens, UniProt Q9NQR1); experiment: PMT filter-paper methylation assay, SET8; details: SET8 (191-352) 1000 nM final, H4 (10-30 aa), 8 h
T4 construct: SET8 (191-352)
T4 sequence (Q9NQR1 191-352 isoform Q9NQR1-2): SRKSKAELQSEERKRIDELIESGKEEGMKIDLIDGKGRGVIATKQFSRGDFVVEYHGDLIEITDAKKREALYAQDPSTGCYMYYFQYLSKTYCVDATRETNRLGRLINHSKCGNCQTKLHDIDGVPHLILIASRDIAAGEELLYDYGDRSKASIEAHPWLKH
Procedure: as §1, §2, §3

SETD2 = target: T5, SETD2 (Homo sapiens, UniProt Q9BYW2); experiment: PMT filter-paper methylation assay, SETD2; details: SETD2 (1347-1711) 250 nM final, H3 (20-50 aa), 4 h
T5 construct: SETD2 (1347-1711)
T5 sequence (Q9BYW2 1347-1711): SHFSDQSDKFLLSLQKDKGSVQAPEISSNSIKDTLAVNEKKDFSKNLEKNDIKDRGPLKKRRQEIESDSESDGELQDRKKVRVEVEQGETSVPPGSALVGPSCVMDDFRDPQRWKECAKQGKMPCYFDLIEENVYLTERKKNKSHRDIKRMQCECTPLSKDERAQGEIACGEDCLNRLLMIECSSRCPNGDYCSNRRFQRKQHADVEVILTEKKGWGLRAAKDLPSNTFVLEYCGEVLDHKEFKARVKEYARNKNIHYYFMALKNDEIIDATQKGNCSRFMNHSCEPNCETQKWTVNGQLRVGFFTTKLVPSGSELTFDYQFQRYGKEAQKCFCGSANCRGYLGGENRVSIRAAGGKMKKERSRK
Procedure: as §1, §2, §3

PRMT1 = target: T6, PRMT1 (Homo sapiens, UniProt Q99873); experiment: PMT filter-paper methylation assay, PRMT1; details: PRMT1 (10-352), 100 nm, RGG substrate, 1.5 h
T6 construct: PRMT1 (10-352)
T6 sequence (Q99873 10-352 isoform Q99873-3): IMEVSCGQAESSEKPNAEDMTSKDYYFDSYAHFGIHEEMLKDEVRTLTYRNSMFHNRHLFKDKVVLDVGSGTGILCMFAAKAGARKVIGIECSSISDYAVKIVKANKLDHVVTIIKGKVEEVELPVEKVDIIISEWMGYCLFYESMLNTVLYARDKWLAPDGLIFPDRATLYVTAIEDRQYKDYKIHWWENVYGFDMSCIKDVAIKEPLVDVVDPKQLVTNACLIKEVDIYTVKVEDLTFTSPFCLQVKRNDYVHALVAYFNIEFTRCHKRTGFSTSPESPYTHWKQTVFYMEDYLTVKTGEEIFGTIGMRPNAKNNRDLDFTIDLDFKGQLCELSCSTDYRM

PRMT3 = target: T7, PRMT3 (Homo sapiens, UniProt O60678); experiment: PMT filter-paper methylation assay, PRMT3; details: PRMT3 (211-531) 100 nM final, RGG, 3 h
T7 construct: PRMT3 (211-531)
T7 sequence (O60678 211-531): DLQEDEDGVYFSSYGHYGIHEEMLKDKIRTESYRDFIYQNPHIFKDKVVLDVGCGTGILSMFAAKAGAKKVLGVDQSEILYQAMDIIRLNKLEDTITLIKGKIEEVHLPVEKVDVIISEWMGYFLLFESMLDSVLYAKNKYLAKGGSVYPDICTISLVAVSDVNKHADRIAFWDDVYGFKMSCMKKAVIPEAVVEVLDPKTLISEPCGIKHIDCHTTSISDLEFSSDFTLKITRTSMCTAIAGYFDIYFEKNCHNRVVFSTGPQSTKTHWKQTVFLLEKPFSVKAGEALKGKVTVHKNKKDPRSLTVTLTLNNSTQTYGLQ

SUV39H2 = target: T8, SUV39H2 (Homo sapiens, UniProt Q9H5I1); experiment: PMT filter-paper methylation assay, SUV39H2; details: SUV39H2 (112-410) 5 nM final, H3 (1-21 aa), 4 h
T8 construct: SUV39H2 (112-410)
T8 sequence (Q9H5I1 112-410): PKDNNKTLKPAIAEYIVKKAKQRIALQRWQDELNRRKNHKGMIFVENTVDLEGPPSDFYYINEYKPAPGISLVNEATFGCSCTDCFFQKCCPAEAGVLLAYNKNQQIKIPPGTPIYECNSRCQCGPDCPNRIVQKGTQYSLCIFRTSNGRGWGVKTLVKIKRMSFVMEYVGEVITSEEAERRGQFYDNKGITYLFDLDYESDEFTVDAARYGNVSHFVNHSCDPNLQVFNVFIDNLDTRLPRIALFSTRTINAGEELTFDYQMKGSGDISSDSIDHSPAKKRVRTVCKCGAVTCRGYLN

CARM1 = target: T9, CARM1 (Homo sapiens, UniProt Q86X55); experiment: PMT filter-paper methylation assay, CARM1; details: H3 (1-40 aa), 7 h
T9 construct: CARM1 (19-608)
T9 sequence (Q86X55 19-608): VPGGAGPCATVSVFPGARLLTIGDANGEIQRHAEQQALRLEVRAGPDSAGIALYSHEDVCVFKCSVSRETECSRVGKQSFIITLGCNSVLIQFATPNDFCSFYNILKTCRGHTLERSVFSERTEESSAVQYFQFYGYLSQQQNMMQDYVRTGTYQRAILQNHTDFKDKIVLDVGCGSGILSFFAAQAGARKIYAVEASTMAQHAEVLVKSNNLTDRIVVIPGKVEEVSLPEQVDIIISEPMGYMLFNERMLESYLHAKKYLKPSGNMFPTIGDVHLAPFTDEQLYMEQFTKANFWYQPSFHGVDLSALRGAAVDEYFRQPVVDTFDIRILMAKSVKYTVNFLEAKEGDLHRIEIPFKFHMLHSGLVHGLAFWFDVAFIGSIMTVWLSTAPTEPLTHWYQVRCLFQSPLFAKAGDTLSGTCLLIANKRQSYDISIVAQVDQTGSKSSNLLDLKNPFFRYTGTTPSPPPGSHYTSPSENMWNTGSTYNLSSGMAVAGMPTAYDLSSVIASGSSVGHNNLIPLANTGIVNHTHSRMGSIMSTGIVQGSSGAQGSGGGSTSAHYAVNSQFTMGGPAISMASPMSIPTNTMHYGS

SMYD2-FL = target: T10, SMYD2-FL (Homo sapiens, UniProt Q9NRG4); experiment: PMT filter-paper methylation assay, SMYD2; details: SMYD2 full-length 50 nM final, p53 (360-393 aa), 10 h
T10 construct: SMYD2 Full-length
T10 sequence (Q9NRG4 whole entry, the tested form may be a part): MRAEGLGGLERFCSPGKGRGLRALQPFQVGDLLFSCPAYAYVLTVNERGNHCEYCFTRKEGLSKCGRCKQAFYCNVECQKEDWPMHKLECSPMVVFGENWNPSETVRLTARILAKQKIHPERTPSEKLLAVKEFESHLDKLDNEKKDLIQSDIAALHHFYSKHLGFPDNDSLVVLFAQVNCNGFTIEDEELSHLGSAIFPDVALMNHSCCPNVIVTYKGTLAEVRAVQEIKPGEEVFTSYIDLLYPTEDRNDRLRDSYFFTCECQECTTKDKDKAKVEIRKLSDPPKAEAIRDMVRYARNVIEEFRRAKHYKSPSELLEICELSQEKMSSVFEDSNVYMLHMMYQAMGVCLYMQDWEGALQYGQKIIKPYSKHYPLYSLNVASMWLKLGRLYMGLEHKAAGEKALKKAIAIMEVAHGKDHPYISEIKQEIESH
Procedure: as §1, §2, §3

SMYD3 = target: T11, SMYD3 (Homo sapiens, UniProt Q9H7B4); experiment: PMT filter-paper methylation assay, SMYD3; details: SMYD3 125 nM final, MAP3K2 (1-350 aa), 2 h
T11 sequence (Q9H7B4 1-428): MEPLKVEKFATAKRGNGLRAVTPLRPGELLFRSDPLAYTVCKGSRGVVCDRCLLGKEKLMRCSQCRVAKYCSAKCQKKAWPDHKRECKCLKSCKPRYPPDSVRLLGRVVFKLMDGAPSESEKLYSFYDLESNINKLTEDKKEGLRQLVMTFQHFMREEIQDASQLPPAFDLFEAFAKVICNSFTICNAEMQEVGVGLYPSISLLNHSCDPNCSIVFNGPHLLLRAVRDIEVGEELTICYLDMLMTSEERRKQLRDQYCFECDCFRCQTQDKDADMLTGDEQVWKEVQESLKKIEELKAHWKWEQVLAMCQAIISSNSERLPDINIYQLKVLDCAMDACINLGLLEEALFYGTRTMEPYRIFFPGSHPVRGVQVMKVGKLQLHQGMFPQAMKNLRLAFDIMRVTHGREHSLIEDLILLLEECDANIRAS
Procedure: as §1, §2, §3

PRMT8 = PRMT8 (Homo sapiens, UniProt Q9NR22); experiment: PMT filter-paper methylation assay, PRMT8
PRMT8, sequence (Q9NR22 whole entry): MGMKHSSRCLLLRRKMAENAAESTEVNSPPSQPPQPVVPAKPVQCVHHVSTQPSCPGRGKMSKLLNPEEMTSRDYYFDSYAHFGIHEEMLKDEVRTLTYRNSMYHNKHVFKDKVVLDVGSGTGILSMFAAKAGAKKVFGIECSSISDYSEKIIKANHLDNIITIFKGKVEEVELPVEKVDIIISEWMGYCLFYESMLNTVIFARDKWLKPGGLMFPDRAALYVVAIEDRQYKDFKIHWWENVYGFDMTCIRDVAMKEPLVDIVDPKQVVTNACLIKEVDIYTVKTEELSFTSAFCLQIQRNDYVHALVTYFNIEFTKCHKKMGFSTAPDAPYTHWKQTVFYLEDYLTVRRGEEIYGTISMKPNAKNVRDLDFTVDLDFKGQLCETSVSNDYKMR
Procedure: as §1, §2, §3

MLL1 = MLL1 (Homo sapiens, UniProt Q03164); experiment: PMT filter-paper methylation assay, MLL1
Procedure: as §1, §2, §3

IC50 (G9a): > 50 µM
IC50 (GLP1): > 50 µM
IC50 (SET7/9): > 50 µM
IC50 (SET8): > 50 µM
IC50 (SETD2): 45 µM
IC50 (PRMT1): > 50 µM
IC50 (PRMT3): > 50 µM
IC50 (SUV39H2): > 50 µM
IC50 (CARM1; CARM1 (19-608)^a 300 nM final enzyme, read-out: IC50 CARM1^a): 0.3 µM
IC50 (CARM1; CARM1 (19-608)^b 25 nM final enzyme, read-out: IC50 CARM1^b): 0.05 µM
IC50 (SMYD2-FL): > 50 µM
IC50 (SMYD3): > 50 µM
IC50 (PRMT8): > 50 µM
IC50 (MLL1): 4.5 µM
Compound: CC(C)(C)c1ccc(NC(=O)NCCC[C@H](CNCc2ccccc2)C[C@H]2O[C@@H](n3cnc4c(N)ncnc43)C(O)C2O)cc1 (some centres unmarked) [Example 104]
